Data taken from US20230407243A1, “GENETIC PLATFORM TO INVESTIGATE THE FUNCTIONS OF BACTERIAL DRUG EFFLUX PUMPS” (priority 2022, published 2023).
Where two headings read alike, the source gives them in different places.

Assays:
Type in all cases: cell-based, Escherichia coli
EKO-35-Pore = experiment: MIC susceptibility profiling, porinated strain; details: for MIC: Escherichia coli, technical duplicate
Summary of the method: (§1)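 MIC values come from background-corrected OD600 readings (pre-incubation OD subtracted) after 18 h at 37 °C and 900 rpm in MHB II. Compounds were tested in duplicate as 2-fold dilutions. The inoculum came from 18 h LB cultures adjusted to OD600 ~1.0 and diluted 1/2000, and the pore-bearing strains were vancomycin-checked beforehand.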

ΔtolC-Pore = experiment: microbe, parasite or virus in culture
Summary of the method: as §1

wild-type (WT) K-12-Pore = experiment: microbe, parasite or virus in culture; details: Escherichia coli, technical duplicate
Summary of the method: as §1

EKO-35 araC::acrD Pore = experiment: MIC susceptibility profiling, porinated efflux platform
Summary of the method: as §1

EKO-35 araC::acrB Pore = experiment: as above
Summary of the method: as §1

EKO-35 araC::acrEF Pore = experiment: as above
Summary of the method: as §1

[1] = system: EKO-35 araC::acrBD408A Pore; experiment: as above
Summary of the method: as §1

EKO-35 araC::emrAB Pore = experiment: as above
Summary of the method: as §1

EKO-35 araC::mdtBC = experiment: MIC susceptibility profiling, efflux platform
Summary of the method: (§2)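 Overnight LB cultures resuspended in PBS to OD600 ~1.0, diluted 1/2000 into MHB II, and added to 2-fold serial compound dilutions in duplicate with DMSO controls. Incubated 18 h at 37° C. with 900 rpm shaking; OD600 read before and after, background subtracted, to derive MIC.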

EKO-35 araC::acrBD408A = experiment: MIC susceptibility profiling, efflux platform
Summary of the method: as §2

EKO-35 araC::mdtEF = experiment: MIC susceptibility profiling, efflux platform
Summary of the method: as §2

EKO-35 araC::macAB = experiment: MIC susceptibility profiling, efflux platform
Summary of the method: as §2

EKO-35 araC::acrD = experiment: MIC susceptibility profiling, efflux platform
Summary of the method: as §2

EKO-35 araC::acrEF = experiment: MIC susceptibility profiling, efflux platform
Summary of the method: as §2

EKO-35 araC::emrKY = experiment: MIC susceptibility profiling, efflux platform; details: EKO-35 araC::emrKY compared to EKO-35
Summary of the method: as §2

[2] = system: EKO-35 araC::mexCD (MexCD from P. aeruginosa); experiment: MIC susceptibility profiling, efflux platform
Summary of the method: as §2

EKO-35 araC::emrAB = experiment: MIC susceptibility profiling, efflux platform
Summary of the method: as §2

EKO-35 araC::acrB = experiment: MIC susceptibility profiling, efflux platform
Summary of the method: as §2

CC[C@H]1OC(=O)[C@H](C)[C@@H](O[C@H]2C[C@@](C)(OC)[C@@H](O)[C@H](C)O2)[C@H](C)[C@@H](O[C@@H]2O[C@H](C)C[C@H](N(C)C)[C@H]2O)[C@](C)(O)C[C@@H](C)CN(C)[C@H](C)[C@@H](O)[C@]1(C)O [azithromycin]
Fold changes of MICs (EKO-35-Pore; EKO-35-Pore compared to EKO-35-Pore (reference)): 1 fold | MIC (EKO-35-Pore; Table 10, with pore, read-out: Minimum inhibitory concentration (MIC), Pore EKO-35): 0.049 µg/mL | MIC (EKO-35-Pore; Table 14A, porinated, read-out: Minimum inhibitory concentration, EKO-35-Pore): 0.049 µg/mL | MIC (ΔtolC-Pore; Escherichia coli, 18 h, read-out: Minimum inhibitory concentration, ΔtolC-Pore): 0.049 µg/mL | Minimum inhibitory concentration (MIC), Pore ΔtolC (ΔtolC-Pore; Table 10, with pore, technical duplicate): 0.049 µg/mL | MIC (wild-type (WT) K-12-Pore; Table 10, with pore, read-out: Minimum inhibitory concentration (MIC), Pore K-12): 0.391 µg/mL | MIC (wild-type (WT) K-12-Pore; Table 14A, porinated, read-out: Minimum inhibitory concentration, K-12 (WT)-Pore): 0.391 µg/mL | Fold changes of MICs (EKO-35 araC::acrD Pore; EKO-35 araC::acrD Pore compared to EKO-35-Pore): 1 fold | MIC (EKO-35 araC::acrD Pore; Escherichia coli, Table 14A, porinated, technical duplicate, read-out: Minimum inhibitory concentration, EKO-35 araC::acrD Pore): 0.024 µg/mL | Fold changes of MICs (EKO-35 araC::acrB Pore; EKO-35 araC::acr-B Pore compared to EKO-35-Pore): 4 fold | MIC (EKO-35 araC::acrB Pore; Escherichia coli, Table 14A, porinated, technical duplicate, read-out: Minimum inhibitory concentration, EKO-35 araC::acrB Pore): 0.195 µg/mL | Fold changes of MICs (EKO-35 araC::acrEF Pore; EKO-35 araC::acrEF Pore compared to EKO-35-Pore): 4 fold | MIC (EKO-35 araC::acrEF Pore; Escherichia coli, Table 14A, porinated, technical duplicate, read-out: Minimum inhibitory concentration, EKO-35 araC::acrEF Pore): 0.195 µg/mL | Fold changes of MICs ([1]; EKO-35 araC::acrBD408A Pore compared to EKO-35-Pore): 2 fold | MIC ([1]; Escherichia coli, EKO-35 araC::acrBD408A Pore, technical duplicate, read-out: Minimum inhibitory concentration): 0.098 µg/mL | Fold changes of MICs (EKO-35 araC::emrAB Pore; EKO-35 araC::emrAB Pore compared to EKO-35-Pore): 1 fold | MIC (EKO-35 araC::emrAB Pore; Escherichia coli, EKO-35 araC::emrAB Pore, technical duplicate, read-out: Minimum inhibitory concentration): 0.049 µg/mL | Fold change of MICs (EKO-35 araC::mdtBC; EKO-35 araC::mdtBC compared to EKO-35): 1 fold | MIC (EKO-35 araC::mdtBC; Escherichia coli, Table 13B, non-porinated, technical duplicate, read-out: Minimum Inhibitory Concentration, EKO-35 araC::mdtBC): 0.781 µg/mL | Fold change of MICs (EKO-35 araC::acrBD408A; EKO-35 araC::acrBD408A compared to EKO-35): 1 fold | MIC (EKO-35 araC::acrBD408A; Escherichia coli, Table 13B, non-porinated, technical duplicate, read-out: Minimum Inhibitory Concentration, EKO-35 araC::acrBD408A): 0.781 µg/mL | Fold change of MICs (EKO-35 araC::mdtEF; EKO-35 araC::mdtEF compared to EKO-35): 8 fold | MIC (EKO-35 araC::mdtEF; Escherichia coli, Table 13A, non-porinated, technical duplicate, read-out: Minimum Inhibitory Concentration, EKO-35 araC::mdtEF): 6.25 µg/mL | Fold change of MICs (EKO-35 araC::macAB; EKO-35 araC::macAB compared to EKO-35): 4 fold | MIC (EKO-35 araC::macAB; Escherichia coli, Table 13B, non-porinated, technical duplicate, read-out: Minimum Inhibitory Concentration, EKO-35 araC::macAB): 3.12 µg/mL | efflux pump-mediated resistance vs EKO-35 (EKO-35 araC::macAB; MacAB): specific | Fold change of MICs (EKO-35 araC::acrD; EKO-35 araC::acrD compared to EKO-35): 1 fold | MIC (EKO-35 araC::acrD; Escherichia coli, Table 13A, non-porinated, technical duplicate, read-out: Minimum Inhibitory Concentration, EKO-35 araC::acrD): 0.781 µg/mL | Fold change of MICs (EKO-35 araC::acrEF; EKO-35 araC::acrEF compared to EKO-35): 8 fold | MIC (EKO-35 araC::acrEF; Escherichia coli, Table 13A, non-porinated, technical duplicate, read-out: Minimum Inhibitory Concentration, EKO-35 araC::acrEF): 6.25 µg/mL | Fold change of MICs (EKO-35 araC::emrKY): 1 fold | Fold change of MICs ([2]; EKO-35 araC::mexCD compared to EKO-35): 4 fold | MIC ([2]; Table 13B, non-porinated, technical duplicate, read-out: Minimum Inhibitory Concentration, EKO-35 araC::mexCD): 3.12 µg/mL | Fold change of MICs (EKO-35 araC::emrAB; EKO-35 araC::emrAB compared to EKO-35): 1 fold | MIC (EKO-35 araC::emrAB; Escherichia coli, Table 13B, non-porinated, technical duplicate, read-out: Minimum Inhibitory Concentration, EKO-35 araC::emrAB): 0.781 µg/mL | Fold change of MICs (EKO-35 araC::acrB; EKO-35 araC::acrB compared to EKO-35): 16 fold | MIC (EKO-35 araC::acrB; Escherichia coli, Table 13A, non-porinated, technical duplicate, read-out: Minimum Inhibitory Concentration, EKO-35 araC::acrB): 12.5 µg/mL
